Tests used:
Type in all cases: cell-based
[1] = test system: RT-112 bladder cancer cells; test: Anchorage-independent cell growth assay (colonies in soft agar); conditions: RT-112, treated at 1xIC50 or 2xIC50 for 3 days
Method: Quadruplicate samples of 1×10^6 bladder cancer cells, that were previously untreated or treated with the MJK-004 at the concentration corresponding to the 1×IC50 or 2×IC50 for each cell line (as assessed at the third day after cells' plating and treatment) for 3 days, were assayed in 96-well plates for colony formation using the CytoSelect Cell Transformation kit (Cell Biolabs, Inc) according to manufacturer's protocol. Seven days later, live cells were detected using a colorimetric format. The MTT dye was added directly to the cultured cells followed by a detergent solution. Quantitation was performed using a standard microplate reader at 540-570 nm. Data were expressed as the mean±S.D.

[2] = test system: SW480 colon cancer cell line; test: Cell viability assay (CellTiter Glo), SW480; conditions: Homo sapiens, 120 h; SW480, 20 uM, day 5; read-out: % growth inhibition
Method: (§1) Pancreatic cancer cell lines (MIA PaCa-2 and CAPAN-2) were purchased from ATCC. MIA PaCa-2 were grown in DMEM and CAPAN-2 in McCoy's 5A (Gibco). Colon cancer cell lines (SW480 and HT-29) were purchased from ATCC. SW480 were grown in Leibovitz's L-15 (ATCC) and HT-29 in McCoy's 5A (Gibco). Lung cancer cell lines (NCI 460 and NCI 1975) were purchased from ATCC and grown in RPMI 1640 (Gibco). PC-3 prostate cancer cell line was purchased from ATCC and grown in F-12K (ATCC). Bladder cancer cell line 5637 was purchased from ATCC and RT-112 was purchased from Sigma-Aldrich and was grown in RPMI 1640 (Gibco). […] IL1B and TNFA mRNA levels were measured by qPCR analysis as described previously (Fang K et al. Am J Pathol, 188(3):586-99, 2018).
(§2) 1.8×10^3 cells/well were plated in quadruplicates in 96-well plate and treated with exogenously added MJK analogues 6 hours after plating. […] Cell growth was assessed 1, 3, 5 or 7 days after plating using the CellTiter Glo Luminescence Cell Viability Assay (Promega) according to manufacturer's protocol. For the experiments where the effect of combinatorial treatment of MJK-004 analogues with chemotherapy was assessed, treatment of cells with gemcitabine (10 nM) or 5-fluouracil (2000 nM) was performed one day after MJK-004 treatment and the cells were further treated with exogenously added MJK analogues 2 days later. […]

[3] = test system: NCI-460 lung cancer cell line; test: Cell viability assay (CellTiter Glo), NCI-460; conditions: 120 h; NCI-460, 20 uM, day 5; read-out: % growth inhibition
Method: as §1, §2

[4] = test system: HT-29 colon cancer cell line; test: Cell viability assay (CellTiter Glo), HT-29; conditions: Homo sapiens, 120 h; HT-29, 20 uM, day 5; read-out: % growth inhibition
Method: as §1, §2

[5] = test system: NCI-1975 lung cancer cell line; test: Cell viability assay (CellTiter Glo), NCI-1975; conditions: 120 h; NCI-1975, 20 uM, day 5; read-out: % growth inhibition
Method: as §1, §2

[6] = test system: CAPAN-2 pancreatic cancer cell line; test: Cell viability assay (CellTiter Glo), CAPAN-2; conditions: Homo sapiens, 120 h; CAPAN-2, 20 uM, day 5; read-out: % growth inhibition
Method: as §1, §2

[7] = test system: MIA PaCa-2 pancreatic cancer cell line; test: Cell viability assay (CellTiter Glo), MIA PaCa-2; conditions: Homo sapiens, 120 h; MIA PaCa-2, 20 uM, day 5; read-out: % growth inhibition
Method: as §1, §2

| Compound | ability to form colonies in soft agar [1] | inhibition at 20 µM [2] | inhibition at 20 µM [3] | inhibition at 20 µM [4] | inhibition at 20 µM [5] | inhibition at 20 µM [6] | inhibition at 20 µM [7] |
| --- | --- | --- | --- | --- | --- | --- | --- |
| Cn1c(/C=C/C(=O)NO)ccc1/C=C/C(=O)c1cccs1 [MJK004, (E)-N-hydroxy-3-(1-methyl-5-((E)-3-oxo-3-(thiophen-2-yl)prop-1-en-1-yl)-1H-pyrrol-2-yl)acrylamide] | reduced significantly | – | – | – | – | – | – |
| Cn1c(/C=C/C(=O)NO)ccc1/C=C/C(=O)c1cccc(F)c1 [MJK001, (E)-3-(5-((E)-3-(3-Fluorophenyl)-3-oxoprop-1-en-1-yl)-1-methyl-1H-pyrrol-2-yl)-N-hydro-xyacrylamide] | – | 58.4% | 3.42% | 19.7% | 11.8% | 42.7% | 0% |

Reference: patent US11952362B2, “Compositions and methods for treating epigenetic disease” (The Regents of the University of California, priority 2018, dated 2024)
